# Tests used:
# [1] = tested on: woodchuck hepatitis virus (WHV); assay: T-cell proliferative responses of PBMCs to WHV peptides (CellTiter-Glo, stimulation index); format: in vivo; conditions: chronic WHV carrier woodchucks; fold change from baseline at T0
# Experimental: In woodchucks, over a 36-week period, AIC649 was administered i.v. and then i.m., alone or in combination with an initial 12 weeks of the direct acting antiviral, ETV, given orally.
# (§1) The efficacy of AIC649 monotherapy, ETV monotherapy, or combination AIC649+ETV therapy was compared to a placebo control group (N=5 animals/group). […] Daily observations, changes in body weight and body temperatures, changes in hematology and clinical chemistry, as well as necropsy and histopathology were assessed for determination of safety.
# PBMCs were isolated from whole blood and cultured for 5 days in the presence of DMSO (negative control), lipopolysaccharide (LPS, positive control), recombinant human IL-2 (positive control), or pools of peptides covering the entire WHcAg, WHsAg, or WHxAg, respectively. Using the CellTiter-Glo® assay, the number of viable cells in each test well was assessed using a luminescent signal proportional to the amount of ATP present, and thus to the number of viable cells. Cultures were assessed after 5 days and a stimulation index (SI) was derived relative to the negative controls as a measure of T-cell responses to specific antigens/stimuli:
# SI=Test luminescence/negative control luminescence
# [2] = Safety assessment (mortality, observations, body weight, temperature, hematology, clinical chemistry, necropsy, histopathology); format: in vivo, woodchuck; conditions: n=5/group at start of experiment; week of death
# Experimental: Treatment-induced changes in viremia, antigenemia, immunological parameters, as well as the induction of WHsAg antibody seroconversion were evaluated for determination of antiviral effects. Daily observations, changes in body weight and body temperatures, changes in hematology and clinical chemistry, as well as necropsy and histopathology were assessed for determination of safety.
# as §1, with “safety. […]” for “safety.”
# Mortality was assessed daily for all animals.
# Body temperature and weight assessments were performed together, weekly. The animal identification number and body temperature were read from a microchip implanted in the dorsal base of the tail using a hand-held chip reader (Biomedical Data Systems Inc.). […]
# Uncoagulated whole blood was collected in EDTA tubes. […] Samples were analyzed the following day using an automated cell counter system (coulter) with program settings for woodchucks (Bellezza, C. A., et al., 2002, Elsevier. p. 309-328). […]
smiles,measurement,setting,value
"C=C1[C@H](CO)[C@@H](O)C[C@@H]1n1cnc2c(=O)[nH]c(N)nc21 [ETV, Entecavir]",cell mediated immune responses (PBMCs stimulated with WHsAg peptides),[1],not
same,deaths in group,[2],"1 animal each at week 4, 14, 21, 29"

# Reference: US20200261520A1, “Combination Therapies of Hepatitis B Virus (HBV)-infected individuals using Parapoxvirus Ovis (PPVO) and at Least one Further Antiviral Drug” (priority 2017, published 2020)
